Article PMC9718554, “Discovery of a fragment hit compound targeting D-Ala:D-Ala ligase of bacterial peptidoglycan biosynthesis” (Journal of Enzyme Inhibition and Medicinal Chemistry, 2022)
Read-outs that look alike come from different tables or passages of the source. Residues, ends and D or L forms follow the SMILES beside them.

Biological target: T1, E. coli DdlB enzyme (D-alanine:D-alanine ligase) (Escherichia coli, UniProt P07862)
T1 construct: made in house; host or cells: E. coli
Experiment: biochemical
Conditions: for remaining activity at 2300 µM: tested concentration 2.3 mM; for remaining activity at 2200 µM: tested concentration 2.2 mM; for remaining activity at 1800 µM: tested concentration 1.8 mM; for remaining activity at 3900 µM: tested concentration 3.9 mM; for remaining activity at 2100 µM: tested concentration 2.1 mM; for remaining activity at 2500 µM: tested concentration 2.5 mM; for remaining activity at 500 µM: at 0.5 mM, read-out: DdlB inhibition, RA (Residual Activity); for remaining activity at 1900 µM: tested concentration 1.9 mM; for remaining activity at 2000 µM: tested concentration 2.0 mM; for remaining activity at 2800 µM: tested concentration 2.8 mM; for remaining activity at 2400 µM: tested concentration 2.4 mM; for remaining activity at 1700 µM: tested concentration 1.7 mM; for remaining activity at 2600 µM: tested concentration 2.6 mM; for remaining activity at 3200 µM: tested concentration 3.2 mM

[1] = residual activity, read-out: DdlB RA
[2] = residual activity of DdlB, fragment library screening, read-out: DdlB RA
[3] = fragment library screening, read-out: DdlB RA

CC(=O)c1cnc2c(C(=O)O)cnn2c1C [Compound D717-0038]
remaining activity at 2300 µM (read-out: DdlB RA): 104%

c1cnc2[nH]cc(CCN3CCNCC3)c2c1 [FF01-3277]
remaining activity at 2200 µM [1]: 62%

O=C(O)C1CCCCC1C(=O)NCc1ccc(F)cc1 (stereo not drawn) [Compound Y204-1009]
remaining activity at 1800 µM (read-out: DdlB RA): 95%

O=C(O)c1cc(O)no1 [Compound 8020-2787]
remaining activity at 3900 µM (read-out: DdlB RA): 92%

O=C(O)c1ccccc1NC(=O)C(F)(F)F [Compound 0931-0537]
remaining activity at 2100 µM [1]: 104%

COc1cc(N)ccn1 [FLD120]
remaining activity at 2500 µM [2]: 97%

CCOC(=O)c1cnn2c(-c3ccc(C)c(C)c3)ccnc12 [Compound 20, Ethyl 7–(3,4-dimethylphenyl)pyrazolo[1,5-a]pyrimidine-3-carboxylate]
remaining activity at 500 µM: 100%

CNC(=O)CN1C(=O)CSC1c1ccc(F)cc1 (stereo not drawn) [Compound V022-4411]
remaining activity at 1900 µM (read-out: DdlB RA): 92%

O=C(c1ccc(O)cc1)c1ccc(O)cc1 [FLD093]
remaining activity at 2500 µM [2]: 97%

CCOC(=O)N1CCC(N)CC1 [FLD189]
remaining activity at 2500 µM [2]: 98%

COc1cccc(-c2ncc(C(=O)O)c(=O)[nH]2)c1 [Compound 8020-2801]
remaining activity at 2000 µM [1]: 92%

CCNC(=O)N1CCC(F)(C(=O)N2CCCC2)CC1 [Compound T502-1430]
remaining activity at 2200 µM [1]: 89%

Cc1c(C)c(C)c(S(=O)(=O)NC(C)C)c(C)c1C [Compound Y206-5269]
remaining activity at 2200 µM [1]: 77%

Cc1cc(N)ccn1 [FLD090]
remaining activity at 2500 µM [2]: 100%

Fc1cc(Br)ccc1CN1CCCNCC1 [FLD158]
remaining activity at 2500 µM [2]: 63%

OB(O)c1ccn[nH]1 [Compound 8018-7072]
remaining activity at 4500 µM (tested concentration 4.5 mM, read-out: DdlB RA): 87%

OCc1noc(C2CC2)n1 [Compound 8020-1925]
remaining activity at 3900 µM [2]: 98%

Cc1cc(C)n(C(=O)C2CC=CCC2C(=O)O)n1 (stereo not drawn) [Compound Y203-9842]
remaining activity at 2000 µM (read-out: DdlB RA): 90%

Nc1ncccc1O [FLD125]
remaining activity at 2500 µM [2]: 97%

O=C(O)c1ccccc1NCCc1ccc(Cl)cc1 [Compound 8524-6914]
remaining activity at 1800 µM [1]: 105%

Cc1cccc(C(=O)N2CCCCC2c2nnc(C)[nH]2)c1 (stereo not drawn) [Compound M754-0809]
remaining activity at 1800 µM [1]: 89%

CC(C)NS(=O)(=O)c1ccc(F)cc1 [Compound Y030-0983]
remaining activity at 2800 µM (read-out: DdlB RA): 94%

O=C(O)CCC(=O)NC1C2CC3CC(C2)CC1C3 (stereo not drawn) [Compound Y206-2966]
remaining activity at 2000 µM (read-out: DdlB RA): 90%

Nc1cccc(O)c1 [FLD085]
remaining activity at 2500 µM [2]: 100%

CC(CCc1ccccc1)NC(=O)N1CCOCC1 (stereo not drawn) [Compound Y030-6075]
remaining activity at 2100 µM [1]: 94%

O=C1CC(c2ccccc2)c2snc(C(=O)O)c2N1 (stereo not drawn) [Compound 8020-2209]
remaining activity at 1800 µM [1]: 94%

CC1=NN(C(C#N)c2cn(C)nc2C)C(C)(C)C1 (stereo not drawn) [Compound 8017-8222]
remaining activity at 2400 µM (read-out: DdlB RA): 105%

O=C(O)CCc1nnc2ccccn2c1=O [Compound Y042-3065]
remaining activity at 2300 µM (read-out: DdlB RA): 102%

Cc1ccc(C(=O)CC2(O)C(=O)Nc3ccccc32)c(C)c1 (stereo not drawn) [Compound 8010-6588]
remaining activity at 1700 µM (read-out: DdlB RA): 93%

Cc1nc(O)[nH]c(=O)c1S(=O)(=O)N1CCCCC1 [Compound D668-0306]
remaining activity at 1800 µM [1]: 89%

O=C1C[C@H]2CN(S(=O)(=O)c3ccccc3)C[C@H]2CN1 [SB76-0562]
remaining activity at 2100 µM [1]: 86%

COc1cc(C(=O)NO)cc(OC)c1OC [Compound 8017-0604]
remaining activity at 2200 µM [1]: 96%

Cc1cc2nc(O)c(CCO)c(C)n2n1 [Compound 8011-1975]
remaining activity at 2900 µM (tested concentration 2.9 mM, read-out: DdlB RA): 95%

O=C1CC(C(=O)O)c2ccccc2N1 (stereo not drawn) [Compound K784-1648]
remaining activity at 2600 µM (read-out: DdlB RA): 87%

OCCc1ccccc1C(F)(F)F [FLD177]
remaining activity at 2500 µM [2]: 100%

O=C(Cc1c[nH]c2ncccc12)NCc1ccccc1 [Compound M508-0504]
remaining activity at 1900 µM [1]: 82%

Nc1n[nH]c(-c2ccccc2C(=O)O)n1 [Compound 8020-6003]
remaining activity at 2500 µM (read-out: DdlB RA): 98%

CC(C)Oc1c(OC(C)C)c(=O)c1=O [FF20-3460]
remaining activity at 2500 µM (read-out: DdlB RA): 72%

NS(=O)(=O)c1ccc(CNC(=O)C2CCCO2)cc1 (stereo not drawn) [Compound Y030-8649]
remaining activity at 1800 µM (read-out: DdlB RA): 97%

CN(C)CC(=O)Nc1ccc(Cl)cn1 [Compound Y206-6252]
remaining activity at 2300 µM (read-out: DdlB RA): 95%

O=C(Nc1ccccc1C(=O)O)c1ccccc1 [Compound 0090-0118]
remaining activity at 2100 µM [1]: 101%

Cc1cc(NC(=O)C2CC(=O)N(C3CCCCC3)C2)no1 (stereo not drawn) [Compound Y031-2007]
remaining activity at 1900 µM [1]: 83%

Cc1ccc(N)c(N)c1 [FLD075]
remaining activity at 2500 µM [2]: 90%

Cc1cc(C(=O)O)n2nc(C)c(Cl)c2n1 [Compound Y504-8761]
remaining activity at 2200 µM [1]: 98%

O=C(O)c1cnn2c(-c3ccsc3)ccnc12 [Compound 16, 7-(Thiophen-3-yl)pyrazolo[1,5-a]pyrimidine-3-carboxylic acid]
remaining activity at 500 µM: 89%

O=C(O)C#CC12CC3CC(CC(C3)C1)C2 [Compound 8009-2654]
remaining activity at 2400 µM (read-out: DdlB RA): 112%

N#Cc1ccc(O)cc1F [Compound 00CS-0032]
remaining activity at 3600 µM (residual activity of DdlB, fragment library screening, tested concentration 3.6 mM, read-out: DdlB RA): 94%

CCC[C@@H]1Cc2nc(O)c(C(=O)O)cc2CO1 [Compound 8330-0016]
remaining activity at 2100 µM (read-out: DdlB RA): 75%

CCC(=O)N1CCC(CC(=O)N2CCOCC2)C1 (stereo not drawn) [Compound S421-0882]
remaining activity at 2000 µM (read-out: DdlB RA): 70%

CN(CC1CCOC1)C(=O)NC1CCCCC1 (stereo not drawn) [Compound S213-1594]
remaining activity at 2500 µM (read-out: DdlB RA): 91%

O=C(O)Cc1ccsc1 [FLD003]
remaining activity at 2500 µM [2]: 100%

Cc1ccc(O)c(CCc2ccc(O)cc2)n1 [Compound 1733-0143]
remaining activity at 2100 µM (read-out: DdlB RA): 90%

CCS(=O)(=O)N1CCC(F)(C(=O)N2CCCC2)CC1 [Compound T502-1464]
remaining activity at 2100 µM [1]: 83%

CC(=O)N1CCC2(CCc3ccc(O)cc3O2)CC1 [Compound Y041-9811]
remaining activity at 2100 µM (read-out: DdlB RA): 94%

Cc1cc2nc(COC(=O)C(C)(C)C)cc(=O)n2o1 [Compound G265-0759]
remaining activity at 1900 µM (read-out: DdlB RA): 97%

O=C(O)c1ccccc1C(=O)NCc1cccnc1 [Compound 1514-0633]
remaining activity at 2000 µM [3]: 93%

Cc1nc(N(C)C)ncc1C(=O)O [Compound C430-1216]
remaining activity at 2800 µM (read-out: DdlB RA): 88%

Cc1cc(-c2ccc(Cl)cc2)nc2cc(C(=O)O)nn12 [Compound D717-0161]
remaining activity at 1700 µM [3]: 88%

CC(O)C1CCN(Cc2ccc(Br)o2)CC1 (stereo not drawn) [Compound T786-0030]
remaining activity at 2100 µM [1]: 94%

CCC(=O)Nc1ccc2[nH]c(=O)oc2c1 [Compound G434-0836]
remaining activity at 2400 µM (read-out: DdlB RA): 85%

COc1cnc(N)nc1 [FLD089]
remaining activity at 2500 µM [2]: 100%

O=C(O)c1cc2ccccc2oc1=O [FLD109]
remaining activity at 2500 µM [2]: 96%

O=c1c(O)c(NC2CC2)c1=O [Compound G317-0511]
remaining activity at 3300 µM (tested concentration 3.3 mM, read-out: DdlB RA): 90%

CCOc1ccc(S(N)(=O)=O)cc1C [Compound Y050-1019]
remaining activity at 2300 µM (read-out: DdlB RA): 79%

COc1ccc(-c2ccc(C(=O)O)o2)cc1 [FLD030]
remaining activity at 2500 µM [2]: 100%

CCc1nc(NCc2ccncc2)ncc1C(=O)O [Compound S272-1779]
remaining activity at 1900 µM [3]: 93%

C#CC(=O)NC(C)c1ccc(C)cc1 (stereo not drawn) [Compound T001-1588]
remaining activity at 3200 µM [2]: 93%

CC(C)n1c(S(=O)(=O)O)nc2ccccc21 [Compound 4587-0081]
remaining activity at 2100 µM (read-out: DdlB RA): 83%

O=C(O)c1cc(O)ccc1Cl [FLD097]
remaining activity at 2500 µM [2]: 94%

CCn1ncc(Cn2cc(Cl)c(N)n2)c1C [Compound Y504-8851]
remaining activity at 2100 µM (read-out: DdlB RA): 96%

O=C(C1CC1)N1CC(c2n[nH]c(C3CC3)n2)C2(CCC2)C1 (stereo not drawn) [SC70-0192]
remaining activity at 1700 µM [1]: 95%

Cc1noc(-c2cccnc2Cl)n1 [Compound 8018-8637]
remaining activity at 2800 µM (read-out: DdlB RA): 96%

O=c1c(O)c(N2CCN(c3ccccc3)CC2)c1=O [Compound G317-0478]
remaining activity at 1900 µM (read-out: DdlB RA): 96%

CCCNc1c(N2CCCC(C(=O)OCC)C2)c(=O)c1=O (stereo not drawn) [Compound C738-0118]
remaining activity at 1700 µM (read-out: DdlB RA): 108%

Cc1c(-c2cc(C(=O)O)n3nccc3n2)cnn1C [Compound Y504-7677]
remaining activity at 1900 µM (read-out: DdlB RA): 86%

NS(=O)(=O)c1ccccc1 [Compound 0402-0167]
remaining activity at 3200 µM (read-out: DdlB RA): 96%

NCC(=O)N[C@@H](Cc1ccc(O)cc1)C(=O)O [Compound Y043-8421] (H-Gly-Tyr-OH)
remaining activity at 2100 µM (read-out: DdlB RA): 95%

O=C(O)c1ccc[nH]1 [FLD034]
remaining activity at 2500 µM [2]: 100%

CCCCC(CC)n1nc(O)cc1N (stereo not drawn) [Compound D068-0219]
remaining activity at 2500 µM (read-out: DdlB RA): 100%

Cc1cnc(C)n1CCNC(=O)C1CC=CC1 [Compound S751-1890]
remaining activity at 2600 µM (read-out: DdlB RA): 98%

O=C1CC2CS(=O)(=O)CC2N1C1CCCCC1 (stereo not drawn) [Compound 8013-3540]
remaining activity at 2100 µM (read-out: DdlB RA): 82%

O=C(O)c1ccccc1NC(=O)c1[nH]ncc1[N+](=O)[O-] [Compound 8010-7769]
remaining activity at 1800 µM [1]: 99%

Nc1ncncn1 [FLD084]
remaining activity at 2500 µM [2]: 98%

N#CCc1nnc(-c2cccc(Cl)c2)[nH]1 [Compound 8018-3009]
remaining activity at 2300 µM [1]: 93%
